Data taken from patent US20060276464A1, “Diarylsulfone sulfonamides and use thereof” (Wyeth, priority 2005, published 2006).
Values joined by “and” are separate entries in the source; they are usually repeats but may differ in a detail not shown here. Equal entries are not always repeated. Where two headings read alike, the source gives them in different places.

Assays:
[1] = molecular target: T1, SFRP-1 (Homo sapiens, UniProt Q8N474); test: Fluorescence polarization binding assay (competitive displacement of a probe compound from SFRP-1); settings: fluorescence anisotropy, 45 nM SFRP-1, 20 nM probe;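 also: test compound competes with a fluorescent probe held by SFRP-1, seen as a drop in probe anisotropy after incubation in darkness, with anisotropy as function of rising compound dose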
T1 sequence (Q8N474 32-314): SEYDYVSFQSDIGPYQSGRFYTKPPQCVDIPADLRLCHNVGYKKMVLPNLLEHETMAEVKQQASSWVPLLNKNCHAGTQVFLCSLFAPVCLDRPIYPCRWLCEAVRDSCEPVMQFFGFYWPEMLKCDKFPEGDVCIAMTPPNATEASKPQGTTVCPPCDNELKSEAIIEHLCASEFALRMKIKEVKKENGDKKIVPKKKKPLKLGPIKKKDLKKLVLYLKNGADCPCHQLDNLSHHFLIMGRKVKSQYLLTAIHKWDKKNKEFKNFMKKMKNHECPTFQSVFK

[2] = molecular target: T1, SFRP-1; test: Cell-based assay for in vitro measurement of SFRP-1/SARP2 antagonist activity (U2OS cells co-transfected with 16x TCF-tk-Luciferase reporter, Wnt and hSFRP-1); settings: for fold induction at 15 µM / fold induction at 10 µM: U2OS; for fold induction at 10 µM: read-out: Fold Induction with SFRP-1, U2OS cells, single dose 10 μM, luciferase reporter, fold induction over SFRP-1 control;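 as to all read-outs here: U2OS cells co-transfected with a TCF-tk luciferase reporter, a Wnt vector, hSFRP-1 or empty vector and CMV-βgal, luciferase luminescence read in cell lysates alongside βgal activity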
[3] = read-out: Fold Induction with SFRP-1, Conc 15 μM, single dose, luciferase reporter, fold induction over SFRP-1 control, cells with SFRP-1
[4] = read-out: Fold Induction without SFRP-1, Conc 15 μM, single dose, luciferase reporter, cells without SFRP-1 (specificity control)
[5] = read-out: Fold Induction with SFRP-1, Conc 15 μM, with SFRP-1, fold induction over SFRP-1 control, single dose
[6] = read-out: Fold Induction without SFRP-1, Conc 15 μM, without SFRP-1, single dose

Structure (SMILES) | IC50 [1] | EC50 [2] [nM] | fold induction at 15 µM [2, 3] | fold induction at 15 µM [2, 4] | fold induction at 15 µM [2, 5] | fold induction at 15 µM [2, 6] | fold induction at 10 µM [2]
C[S+]([O-])c1ccc(C(=O)N2CCC(NS(=O)(=O)c3cc(S(=O)(=O)c4ccccc4)ccc3C(F)(F)F)CC2)cc1 (centres unmarked) [Example 1052, N-{1-[4-(Methylsulfinyl)benzoyl]piperidin-4-yl}-5-(phenylsulfonyl)-2-(trifluoromethyl)benzenesulfonamide] | 90 nM | 155 |  |  |  |  | 
CC(C)c1ccc(S(=O)(=O)c2ccc(N3CCN(C)CC3)cc2)cc1S(=O)(=O)NCC1CCOCC1 [Example 548, 2-isopropyl-5-{[4-(4-methylpiperazin-1-yl)phenyl]sulfonyl}-N-(tetrahydro-2H-pyran-4-ylmethyl)benzenesulfonamide] | 2200 nM |  | 2.5 | 1.2 |  |  | 
O=S(=O)(NCc1ccc(Cl)nc1)c1cc(S(=O)(=O)c2ccccc2)ccc1C(F)(F)F [Example 1030, N-[(6-chloropyridin-3-yl)methyl]-5-(phenylsulfonyl)-2-(trifluoromethyl)benzenesulfonamide] | 500 nM | 1110 |  |  |  |  | 
CNc1ccc(S(=O)(=O)c2ccc(C(C)C)c(S(=O)(=O)NCCc3ccccn3)c2)cc1 [Example 357, 2-isopropyl-5-{[4-(methylamino)phenyl]sulfonyl}-N-(2-pyridin-2-ylethyl)benzenesulfonamide] | 300 nM |  |  |  | 4.2 | 1.1 | 
CC(C)c1ccc(S(=O)(=O)c2ccccc2)cc1S(=O)(=O)NCCCn1ccnc1 [Example 296, N-[3-(1H-imidazol-1-yl)propyl]-2-isopropyl-5-(phenylsulfonyl)benzenesulfonamide] | 200 nM |  |  |  | 3.3 | 1.4 | 
CCc1ccc(S(=O)(=O)c2ccc(C)c(S(=O)(=O)NCCc3ccccn3)c2)cc1 [Example 418, 5-[(4-ethylphenyl)sulfonyl]-2-methyl-N-(2-pyridin-2-ylethyl)benzenesulfonamide] | 1300 nM |  |  |  | 2.3 | 1.2 | 
O=C(NCCNS(=O)(=O)c1cc(S(=O)(=O)c2ccccc2)ccc1C(F)(F)F)c1ccccc1 [Example 770, N-[2-({[5-(Phenylsulfonyl)-2-(trifluoromethyl)phenyl]sulfonyl}amino)ethyl]benzamide] | 2700 nM |  |  |  |  |  | 1.7
O=S(=O)(NCCn1ccnc1)c1cc(S(=O)(=O)c2ccc(F)cc2)ccc1C(F)(F)F [Example 816, 5-[(4-fluorophenyl)sulfonyl]-N-[2-(1H-imidazol-1-yl)ethyl]-2-(trifluoromethyl)benzenesulfonamide] | 270 nM | 1510 |  |  |  |  | 3.8
CC(C)c1ccc([S+]([O-])c2ccccc2)cc1S(=O)(=O)NCCc1ccccn1 (centres unmarked) [Example 575, 2-isopropyl-5-(phenylsulfinyl)-N-(2-pyridin-2-ylethyl)benzenesulfonamide] | 1800 nM |  | 2.6 | 1.1 |  |  | 
CC(C)c1ccc([S@+]([O-])c2ccccc2)cc1S(=O)(=O)NCCc1ccccn1 [Example 590, 2-isopropyl-5-[(R)-phenylsulfinyl]-N-(2-pyridin-2-ylethyl)benzenesulfonamide] | 2000 nM and 2500 nM |  | 2.9 | 1 |  |  | 
CN(CCNS(=O)(=O)c1cc(S(=O)(=O)c2ccccc2)ccc1C(F)(F)F)C(=O)c1ccco1 [Example 837, N-Methyl-N-[2-({[5-(phenylsulfonyl)-2-(trifluoromethyl)phenyl]sulfonyl}amino)ethyl]-2-furamide] | 180 nM | 644 |  |  |  |  | 3.4
Cc1ccc(S(=O)(=O)c2ccc(NCCC#N)cc2)cc1S(=O)(=O)NCCCn1ccnc1 [Example 353, 5-({4-[(2-cyanoethyl)amino]phenyl}sulfonyl)-N-[3-(1H-imidazol-1-yl)propyl]-2-methylbenzenesulfonamide] | 300 nM |  |  |  | 3.3 | 1.1 | 
N#CCCNS(=O)(=O)c1cc(S(=O)(=O)c2cccc(Cl)c2)ccc1C(F)(F)F [Example 752, 5-[(3-chlorophenyl)sulfonyl]-N-(2-cyanoethyl)-2-(trifluoromethyl)benzenesulfonamide] | 400 nM | 1090 |  |  |  |  | 3.8
CC(C)c1ccc(S(=O)(=O)c2ccc(F)cc2)cc1S(=O)(=O)NC1CCN(C(=S)Nc2cccc(C(=O)O)c2)CC1 [Example 700, 3-[({4-[({5-[(4-fluorophenyl)sulfonyl]-2-isopropylphenyl}sulfonyl)amino]piperidin-1-yl}carbonothioyl)amino]benzoic acid] | 500 nM | 397 |  |  |  |  | 1.7

The next lines start with the values.

IC50 [1] | EC50 [2] [nM] | fold induction at 15 µM [2, 3] | fold induction at 15 µM [2, 4] | fold induction at 15 µM [2, 5] | fold induction at 15 µM [2, 6] | fold induction at 10 µM [2] | Structure (SMILES)
2400 nM |  | 1.9 | 1.1 |  |  |  | Cc1ccc(S(=O)(=O)c2ccc(F)cc2)cc1S(=O)(=O)NC1CCN(C(=O)c2ccc(C#N)cc2)CC1 [Example 586, N-[1-(4-cyanobenzoyl)piperidin-4-yl]-5-[(4-fluorophenyl)sulfonyl]-2-methylbenzenesulfonamide]
900 nM |  | 1.9 | 1.1 |  |  |  | CC(C)c1ccc(S(=O)(=O)c2cccc3cccnc23)cc1S(=O)(=O)NCCc1ccccn1 [Example 510, 2-isopropyl-N-(2-pyridin-2-ylethyl)-5-(quinolin-8-ylsulfonyl)benzenesulfonamide]
600 nM | 1540 |  |  |  |  | 2.5 | CN(CCNS(=O)(=O)c1cc(S(=O)(=O)c2ccccc2)ccc1C(F)(F)F)C(=O)OC(C)(C)C [Example 793, tert-Butyl methyl[2-({[5-(phenylsulfonyl)-2-(trifluoromethyl)phenyl]sulfonyl}amino)ethyl]carbamate]
2900 nM |  |  |  | 1.7 | 1 |  | CC(=O)Nc1ccc(C(=O)N2CCC(NS(=O)(=O)c3cc(S(=O)(=O)c4ccccc4)ccc3C)CC2)cc1 [Example 480, N-(4-{[4-({[2-methyl-5-(phenylsulfonyl)phenyl]sulfonyl}amino)piperidin-1-yl]carbonyl}phenyl)acetamide]
200 nM and 300 nM |  | 4 | 1.1 |  |  |  | CC(C)c1ccc(S(=O)(=O)c2ccc(F)cc2)cc1S(=O)(=O)NCCc1cccnc1 [Example 534, 5-[(4-fluorophenyl)sulfonyl]-2-isopropyl-N-(2-pyridin-3-ylethyl)benzenesulfonamide]
400 nM |  |  |  | 2.9 | 1.1 |  | CNc1ccc(S(=O)(=O)c2ccc(C)c(S(=O)(=O)NCCCn3ccnc3)c2)cc1 [Example 310, N-[3-(1H-imidazol-1-yl)propyl]-2-methyl-5-{[4-(methylamino)phenyl]sulfonyl}benzenesulfonamide]
400 nM |  | 3.6 | 1.7 |  |  |  | CC(C)c1ccc(S(=O)(=O)c2ccc(F)cc2)cc1S(=O)(=O)NCCn1ccnc1C(C)C [Example 588, 5-[(4-fluorophenyl)sulfonyl]-2-isopropyl-N-[2-(2-isopropyl-1H-imidazol-1-yl)ethyl]benzenesulfonamide]
80 nM | 541 |  |  |  |  | 4.5 | O=S(=O)(NC1CCN(S(=O)(=O)c2ccc(O)cc2)CC1)c1cc(S(=O)(=O)c2ccccc2)ccc1C(F)(F)F [Example 914, N-{1-[(4-hydroxyphenyl)sulfonyl]piperidin-4-yl}-5-(phenylsulfonyl)-2-(trifluoromethyl)benzenesulfonamide]
110 nM | 310 |  |  |  |  | 4.3 | O=C(O)c1cccc(N2CCC(CNS(=O)(=O)c3cc(S(=O)(=O)c4ccccc4)ccc3C(F)(F)F)CC2)c1 [Example 956, 3-{4-[({[5-(phenylsulfonyl)-2-(trifluoromethyl)phenyl]sulfonyl}amino)methyl]piperidin-1-yl}benzoic acid]
180 nM | 636 |  |  |  |  | 3 | O=C(O)CCC(=O)N1CCC(CNS(=O)(=O)c2cc(S(=O)(=O)c3ccccc3)ccc2C(F)(F)F)CC1 [Example 902, 4-oxo-4-{4-[({[5-(phenylsulfonyl)-2-(trifluoromethyl)phenyl]sulfonyl}amino)methyl]piperidin-1-yl}butanoic acid]
900 nM | 1120 |  |  |  |  | 2.9 | COC(=O)C1CCCC(NS(=O)(=O)c2cc(S(=O)(=O)c3ccccc3)ccc2C(F)(F)F)C1 (centres unmarked) [Example 945, methyl 3-({[5-(phenylsulfonyl)-2-(trifluoromethyl)phenyl]sulfonyl}amino)cyclohexanecarboxylate]
250 nM | 1710 |  |  |  |  | 3.5 | CN(CCNS(=O)(=O)c1cc(S(=O)(=O)c2ccccc2)ccc1C(F)(F)F)C(=O)Nc1cccnc1 [Example 827, N-(2-{methyl[(pyridin-3-ylamino)carbonyl]amino}ethyl)-5-(phenylsulfonyl)-2-(trifluoromethyl)benzenesulfonamide]
7000 nM |  |  |  |  |  | 2.9 | CCC(O)CNS(=O)(=O)c1cc(S(=O)(=O)c2ccc(F)cc2)ccc1C(C)C (centres unmarked) [Example 738, 5-[(4-fluorophenyl)sulfonyl]-N-(2-hydroxybutyl)-2-isopropylbenzenesulfonamide]
